Results reported in paper PMC7694328, “Synthesis and Glycosidase Inhibition Properties of Calix[8]arene-Based Iminosugar Click Clusters” (Pharmaceuticals, 2020).
Several values for one entry are separate records, joined by “and”; a condition that tells them apart may be missing. Identical values can stand only once. Like-named read-outs stand apart in the source and are kept apart here.

Key:
[1] = biological target: T1, Jack Bean α-mannosidase (JBα-man) (Canavalia ensiformis, UniProt C0HJB3); conditions: cited from earlier work; for rp/n: cyclopeptoid-based clusters
T1 construct: two LH heterodimers, each constituted by two distinct chains, L and H; purchased Sigma Aldrich
T1 sequence (C0HJB3 1-562 limits assumed): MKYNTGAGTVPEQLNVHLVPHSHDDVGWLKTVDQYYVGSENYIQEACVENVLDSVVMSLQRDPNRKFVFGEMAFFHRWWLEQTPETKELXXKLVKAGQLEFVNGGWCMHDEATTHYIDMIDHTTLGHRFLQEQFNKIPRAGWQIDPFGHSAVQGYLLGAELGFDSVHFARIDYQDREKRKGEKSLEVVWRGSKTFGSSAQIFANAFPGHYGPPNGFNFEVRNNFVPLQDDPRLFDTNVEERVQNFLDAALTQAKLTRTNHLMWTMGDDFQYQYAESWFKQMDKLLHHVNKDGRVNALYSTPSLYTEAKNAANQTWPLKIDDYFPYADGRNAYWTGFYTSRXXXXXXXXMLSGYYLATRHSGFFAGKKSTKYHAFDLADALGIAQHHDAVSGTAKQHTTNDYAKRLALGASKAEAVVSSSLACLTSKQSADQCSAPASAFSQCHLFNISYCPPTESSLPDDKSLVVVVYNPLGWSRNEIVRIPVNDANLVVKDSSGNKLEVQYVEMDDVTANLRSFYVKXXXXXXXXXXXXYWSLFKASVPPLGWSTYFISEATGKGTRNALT
T1 sequence (C0HJB3 563-981 limits assumed): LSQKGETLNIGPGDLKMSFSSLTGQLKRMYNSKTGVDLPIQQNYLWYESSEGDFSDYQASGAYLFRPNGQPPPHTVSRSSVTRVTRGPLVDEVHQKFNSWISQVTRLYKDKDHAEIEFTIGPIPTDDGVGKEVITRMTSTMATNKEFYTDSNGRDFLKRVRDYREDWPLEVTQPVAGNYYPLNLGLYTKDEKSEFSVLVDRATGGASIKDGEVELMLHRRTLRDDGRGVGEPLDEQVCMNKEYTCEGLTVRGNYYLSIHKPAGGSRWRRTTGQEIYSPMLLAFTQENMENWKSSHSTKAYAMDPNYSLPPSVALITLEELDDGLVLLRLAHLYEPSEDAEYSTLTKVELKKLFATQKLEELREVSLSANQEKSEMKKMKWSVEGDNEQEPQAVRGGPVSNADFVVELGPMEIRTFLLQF

[2] = biological target: T1, Jack Bean α-mannosidase (JBα-man); experiment: Inhibition assay against Jack Bean α-mannosidase (hydrolysis of p-nitrophenyl-α-D-mannopyranoside); assay type: biochemical
Procedure: p-nitrophenyl-α-D-mannopyranoside and α-mannosidase (EC 3.2.1.24, from Jack Bean, Km = 2.0 mM pH 5.5) were purchased from Sigma Aldrich(St. Louis, MO, USA).
General procedure for Inhibition assay with basic quench: Inhibitory potencies were determined spectrophotometrically (Versamax 96-well plate spectrophotometer, Molecular Devices Corporation, Sunnyvale, CA, USA) measuring the residual hydrolytic activities of the mannosidase against p-nitrophenyl-α-D-mannopyranoside in the presence and absence of the inhibitor. All kinetics were performed at 25 °C and started by enzyme addition (0.015 U/mL) in a 100 µL assay medium (acetate buffer, 0.2 M, pH = 5) containing substrate (varying concentration from Km/8 to 2Km value) in presence or absence of various concentrations of inhibitor. After 40–50 min incubation, the reaction was quenched by addition of 1M Na2CO3 (100 µL). The absorbance of the resulting solution was determined at 405 nm. Ki values were determined in duplicate or triplicate, using the Dixon and Lineweaver–Burk graphical methods with Microsoft Excel 97-03, or using non-linear regression with GraphPad Prism 7 Software. As the inhibitors are only partially soluble in water, they were dissolved in DMSO for concentrated mother solutions and DMSO/buffer for diluted solutions with a final DMSO concentration under 4% in all wells. Previously, the stability of the enzymes in presence of various concentrations of DMSO was controlled and the enzyme activity was unaffected.
General procedure for inhibition assay measured continuously: The release of p-nitrophenol was measured continuously at 385 nm to determine initial velocities. […] Under these conditions, the p-nitrophenolate released led to optical densities linear with both reaction time and concentration of the enzyme. Ki values were determined in duplicate or quadruplate, using the Dixon graphical method. As the inhibitors are only partially soluble in water, they were dissolved in DMSO for concentrated mother solutions and DMSO/buffer for diluted solutions with a final DMSO concentration under 5% in all vials. […]

[3] = calix[4]arene cluster and its monovalent reference, read-out: Ki

With `O=C1CN(Cc2cn(CCCCCCCCCN3C[C@H](O)[C@@H](O)[C@H](O)[C@H]3CO)nn2)C(=O)CN(Cc2cn(CCCCCCCCCN3C[C@H](O)[C@@H](O)[C@H](O)[C@H]3CO)nn2)C(=O)CN(Cc2cn(CCCCCCCCCN3C[C@H](O)[C@@H](O)[C@H](O)[C@H]3CO)nn2)C(=O)CN(Cc2cn(CCCCCCCCCN3C[C@H](O)[C@@H](O)[C@H](O)[C@H]3CO)nn2)C(=O)CN(Cc2cn(CCCCCCCCCN3C[C@H](O)[C@@H](O)[C@H](O)[C@H]3CO)nn2)C(=O)CN1Cc1cn(CCCCCCCCCN2C[C@H](O)[C@@H](O)[C@H](O)[C@H]2CO)nn1` [Compound 1a] as the compound, how does the rp/n [1] read?
The rp/n was 3 and ~ 3.

For `O=C1CN(Cc2cn(CCCCCCCCCN3C[C@H](O)[C@@H](O)[C@H](O)[C@H]3CO)nn2)C(=O)CN(Cc2cn(CCCCCCCCCN3C[C@H](O)[C@@H](O)[C@H](O)[C@H]3CO)nn2)C(=O)CN(Cc2cn(CCCCCCCCCN3C[C@H](O)[C@@H](O)[C@H](O)[C@H]3CO)nn2)C(=O)CN(Cc2cn(CCCCCCCCCN3C[C@H](O)[C@@H](O)[C@H](O)[C@H]3CO)nn2)C(=O)CN(Cc2cn(CCCCCCCCCN3C[C@H](O)[C@@H](O)[C@H](O)[C@H]3CO)nn2)C(=O)CN(Cc2cn(CCCCCCCCCN3C[C@H](O)[C@@H](O)[C@H](O)[C@H]3CO)nn2)C(=O)CN(Cc2cn(CCCCCCCCCN3C[C@H](O)[C@@H](O)[C@H](O)[C@H]3CO)nn2)C(=O)CN1Cc1cn(CCCCCCCCCN2C[C@H](O)[C@@H](O)[C@H](O)[C@H]2CO)nn1` [Compound 1b], which rp/n [1] is on record?
The rp/n was 3 and ~ 3.

What does the source list for `CC(C)(C)c1cc2c(OCc3cn(CCCN4C[C@H](O)[C@@H](O)[C@H](O)[C@H]4CO)nn3)c(c1)Cc1cc(C(C)(C)C)cc(c1OCc1cn(CCCN3C[C@H](O)[C@@H](O)[C@H](O)[C@H]3CO)nn1)Cc1cc(C(C)(C)C)cc(c1OCc1cn(CCCN3C[C@H](O)[C@@H](O)[C@H](O)[C@H]3CO)nn1)Cc1cc(C(C)(C)C)cc(c1OCc1cn(CCCN3C[C@H](O)[C@@H](O)[C@H](O)[C@H]3CO)nn1)C2` [Compound 2]?
Ki [1, 3]: 1.5 µM; rp/n (affinity enhancement per iminosugar) ([1]; calix[4]arene cluster): 70 and ~ 70

With `CCCc1cn(CCCCCCN2C[C@H](O)[C@@H](O)[C@H](O)[C@H]2CO)nn1` [Compound 3] as the compound, how does the Ki ([1]; monovalent reference, C6 chain, read-out: Ki) read?
Its Ki is 322 µM.

With `CCCc1cn(CCCCCCCCCN2C[C@H](O)[C@@H](O)[C@H](O)[C@H]2CO)nn1` [Compound 4] as the compound, how does the Ki ([1]; monovalent reference, C9 chain, read-out: Ki) read?
Its Ki is 188 µM.

With `OCc1cn(CCCN2C[C@H](O)[C@@H](O)[C@H](O)[C@H]2CO)nn1` [Compound 5] as the compound, how does the Ki [1, 3] read?
Its Ki is 400 µM.

For `CC(C)(C)c1cc2c3c(c1)Cc1cc(C(C)(C)C)cc(c1OCc1cn(CCCCCCN4C[C@H](O)[C@@H](O)[C@H](O)[C@H]4CO)nn1)Cc1cc(C(C)(C)C)cc(c1OCc1cn(CCCCCCN4C[C@H](O)[C@@H](O)[C@H](O)[C@H]4CO)nn1)Cc1cc(C(C)(C)C)cc(c1OCc1cn(CCCCCCN4C[C@H](O)[C@@H](O)[C@H](O)[C@H]4CO)nn1)Cc1cc(C(C)(C)C)cc(c1OCc1ccc(cc1)CO3)Cc1cc(C(C)(C)C)cc(c1OCc1cn(CCCCCCN3C[C@H](O)[C@@H](O)[C@H](O)[C@H]3CO)nn1)Cc1cc(C(C)(C)C)cc(c1OCc1cn(CCCCCCN3C[C@H](O)[C@@H](O)[C@H](O)[C@H]3CO)nn1)Cc1cc(C(C)(C)C)cc(c1OCc1cn(CCCCCCN3C[C@H](O)[C@@H](O)[C@H](O)[C@H]3CO)nn1)C2` [Compound 7a], which inhibition mode [2] is on record?
Its inhibition mode is “competitive inhibitors”.

And the Ki ([2]; means ± SD, triplicate)?
Its Ki is 7.7 ± 0.7 µM.

What about the “rp/n (relative inhibition potency per DNJ unit)” value ([2]; rp/number of DNJ units) of the same compound?
The value was 7.

For `OC[C@@H]1[C@@H](O)[C@H](O)[C@H](O)c2nccn21` [mannoimidazole], which Ki ([1]; monovalent inhitope, read-out: Ki (monovalent)) is on record?
The Ki was 0.11 µM.
